Measured values: patent US12162890B2 (Novartis AG, priority 2015, dated 2024)

target: HEK293 cells with stable expression of the GRIN1 gene and tetracycline-inducible expression of the GRIN2B gene (NMDA receptor, NR2B) (Homo sapiens, UniProt Q13224); assay: Fluo-8 Ca2+ flux assay: reversal of Ro 25-6981-mediated suppression of the Ca2+ response to co-agonist (glutamate/glycine); assay type: cell-based; details: reversal of the Ro 25-6981 suppression of the Ca2+ response to co-agonist (glutamate/glycine); note: test concentration or dose not given here
Sequence (Q13224 27-1484, other chains not shown): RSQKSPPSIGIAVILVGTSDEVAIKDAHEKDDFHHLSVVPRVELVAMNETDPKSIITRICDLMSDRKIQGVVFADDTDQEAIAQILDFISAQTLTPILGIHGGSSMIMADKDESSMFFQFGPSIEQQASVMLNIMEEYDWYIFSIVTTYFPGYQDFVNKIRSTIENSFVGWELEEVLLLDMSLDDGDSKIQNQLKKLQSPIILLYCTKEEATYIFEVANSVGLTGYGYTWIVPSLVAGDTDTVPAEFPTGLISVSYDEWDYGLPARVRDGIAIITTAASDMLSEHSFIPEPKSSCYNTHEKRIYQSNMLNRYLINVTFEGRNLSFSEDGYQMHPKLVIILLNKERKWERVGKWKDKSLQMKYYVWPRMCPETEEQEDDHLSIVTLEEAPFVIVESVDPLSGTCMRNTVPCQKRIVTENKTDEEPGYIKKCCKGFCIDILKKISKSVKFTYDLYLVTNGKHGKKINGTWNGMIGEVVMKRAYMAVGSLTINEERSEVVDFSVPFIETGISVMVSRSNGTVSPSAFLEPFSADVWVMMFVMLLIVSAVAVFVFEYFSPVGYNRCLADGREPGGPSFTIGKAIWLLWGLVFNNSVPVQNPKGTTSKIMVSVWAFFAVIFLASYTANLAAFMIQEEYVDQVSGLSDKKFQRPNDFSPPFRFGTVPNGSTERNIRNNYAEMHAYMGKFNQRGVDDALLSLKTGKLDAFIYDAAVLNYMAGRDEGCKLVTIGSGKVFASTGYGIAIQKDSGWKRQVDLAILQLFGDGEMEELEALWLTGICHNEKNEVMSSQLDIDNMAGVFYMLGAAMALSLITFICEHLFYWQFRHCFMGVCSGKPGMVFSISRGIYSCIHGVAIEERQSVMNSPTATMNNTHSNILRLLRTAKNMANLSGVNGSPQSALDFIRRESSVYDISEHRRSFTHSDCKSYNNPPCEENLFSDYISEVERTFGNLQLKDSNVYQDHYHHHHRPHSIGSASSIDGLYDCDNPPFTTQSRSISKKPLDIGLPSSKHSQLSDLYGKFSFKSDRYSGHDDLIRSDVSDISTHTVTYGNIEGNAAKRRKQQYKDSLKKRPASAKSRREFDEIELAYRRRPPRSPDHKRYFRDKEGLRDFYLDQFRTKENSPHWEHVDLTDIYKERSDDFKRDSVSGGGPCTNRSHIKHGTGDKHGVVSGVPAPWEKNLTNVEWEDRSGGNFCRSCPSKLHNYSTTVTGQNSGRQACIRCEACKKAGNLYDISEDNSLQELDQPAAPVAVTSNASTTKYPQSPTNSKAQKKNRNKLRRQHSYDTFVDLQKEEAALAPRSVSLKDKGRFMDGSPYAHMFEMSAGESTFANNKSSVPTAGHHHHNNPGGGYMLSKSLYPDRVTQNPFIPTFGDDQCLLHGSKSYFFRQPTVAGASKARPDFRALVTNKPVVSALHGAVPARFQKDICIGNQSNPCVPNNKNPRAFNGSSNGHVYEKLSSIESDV

| Structure (SMILES) | Response Recovered (%) |
| --- | --- |
| Cc1cc(-c2cn(C3CC3)c3ccn(CC(=O)N4CC(C)(F)C4)c(=O)c23)ccc1F [Example 290, 1-cyclopropyl-5-(2-(3-fluoro-3-methylazetidin-1-yl)-2-oxoethyl)-3-(4-fluoro-3-methylphenyl)-1H-pyrrolo[3,2-c]pyridin-4(5H)-one] | 120 |
| CC1(F)CN(C(=O)Cn2ccc3c(c(-c4cnc(F)c(Cl)c4)cn3C3CC3)c2=O)C1 [Example 291, 3-(5-chloro-6-fluoropyridin-3-yl)-1-cyclopropyl-5-(2-(3-fluoro-3-methylazetidin-1-yl)-2-oxoethyl)-1H-pyrrolo[3,2-c]pyridin-4(5H)-one] | 80 |
| Cc1cc(-c2cn(C3CC3)c3ccn(CC(=O)N4CC(C)(F)C4)c(=O)c23)ccc1Cl [Example 292, 3-(4-chloro-3-methylphenyl)-1-cyclopropyl-5-(2-(3-fluoro-3-methylazetidin-1-yl)-2-oxoethyl)-1,5-dihydro-4H-pyrrolo[3,2-c]pyridin-4-one] | 140 |
| O=C(Cn1ccc2c(c(-c3ccc(Cl)c(Cl)c3)cn2C2CC2)c1=O)N1CC(F)(CF)C1 [Example 293, 1-cyclopropyl-3-(3,4-dichlorophenyl)-5-(2-(3-fluoro-3-(fluoromethyl)azetidin-1-yl)-2-oxoethyl)-1,5-dihydro-4H-pyrrolo[3,2-c]pyridin-4-one] | 160 |
| CCC1(F)CN(C(=O)Cn2ccc3c(c(-c4cnc(Cl)c(Cl)c4)cn3C3CC3)c2=O)C1 [Example 294, 1-cyclopropyl-3-(5,6-dichloropyridin-3-yl)-5-(2-(3-ethyl-3-fluoroazetidin-1-yl)-2-oxoethyl)-1,5-dihydro-4H-pyrrolo[3,2-c]pyridin-4-one] | 88 |
| O=C(Cn1cnc2cccc(-c3ccc(Cl)cc3)c2c1=O)N1CCCC1 [Example 295, 5-(4-chlorophenyl)-3-(2-oxo-2-(pyrrolidin-1-yl)ethyl)quinazolin-4(3H)-one] | 1 |
| O=C(Cn1cnc2cccc(-c3ccc(Cl)cc3)c2c1=O)N1CC(F)(F)C1 [Example 296, 5-(4-chlorophenyl)-3-(2-(3,3-difluoroazetidin-1-yl)-2-oxoethyl)quinazolin-4(3H)-one] | 9 |
| O=C(Cn1cnc2cccc(-c3ccc(Cl)cc3)c2c1=O)N1CCCC1C(F)(F)F (centres unmarked) [Example 297, 5-(4-chlorophenyl)-3-(2-oxo-2-(2-(trifluoromethyl)pyrrolidin-1-yl)ethyl)quinazolin-4(3H)-one] | 3 |
| O=C(Cn1cnc2cccc(-c3ccc(Cl)cc3)c2c1=O)N1CCCC1F (centres unmarked) [Example 298, 5-(4-chlorophenyl)-3-(2-(2-fluoropyrrolidin-1-yl)-2-oxoethyl)quinazolin-4(3H)-one] | 9 |
| O=C(Cn1ccc2cccc(-c3ccc(Cl)c(C(F)(F)F)c3)c2c1=O)N1CCCC1 [Example 300, 8-(4-chloro-3-(trifluoromethyl)phenyl)-2-(2-oxo-2-(pyrrolidin-1-yl)ethyl)isoquinolin-1(2H)-one] | 37 |
| O=C(Cn1ccc2cccc(-c3ccc(Cl)c(C(F)(F)F)c3)c2c1=O)N1CC(F)(F)C1 [Example 301, 8-(4-chloro-3-(trifluoromethyl)phenyl)-2-(2-(3,3-difluoroazetidin-1-yl)-2-oxoethyl)isoquinolin-1(2H)-one] | 28 |
| O=C(Cn1ccc2cccc(-c3ccc(F)c(Cl)c3)c2c1=O)N1CCC(F)C1 (centres unmarked) [Example 302, 8-(3-chloro-4-fluorophenyl)-2-(2-(3-fluoropyrrolidin-1-yl)-2-oxoethyl)isoquinolin-1(2H)-one] | 40 |
| O=C(Cn1ccc2cccc(-c3ccc(F)c(Cl)c3)c2c1=O)N1CCCC1 [Example 303, 8-(3-chloro-4-fluorophenyl)-2-(2-oxo-2-(pyrrolidin-1-yl)ethyl)isoquinolin-1(2H)-one] | 46 |
| O=C(Cn1ccc2cccc(-c3ccc(Cl)c(Cl)c3)c2c1=O)N1CCC(F)C1 (centres unmarked) [Example 304, 8-(3,4-dichlorophenyl)-2-(2-(3-fluoropyrrolidin-1-yl)-2-oxoethyl)isoquinolin-1(2H)-one] | 60 |
| O=C(Cn1ccc2cccc(-c3ccc(Cl)c(F)c3)c2c1=O)N1CC(F)(F)C1 [Example 305, 8-(4-chloro-3-fluorophenyl)-2-(2-(3,3-difluoroazetidin-1-yl)-2-oxoethyl)isoquinolin-1(2H)-one] | 23 |
| O=C(Cn1ccc2cccc(-c3ccc(Cl)c(F)c3)c2c1=O)N1CCC(F)C1 (centres unmarked) [Example 306, 8-(4-chloro-3-fluorophenyl)-2-(2-(3-fluoropyrrolidin-1-yl)-2-oxoethyl)isoquinolin-1(2H)-one] | 25 |
| O=C(Cn1ccc2cccc(-c3ccc(Cl)c(F)c3)c2c1=O)N1CCCC1 [Example 307, 8-(4-chloro-3-fluorophenyl)-2-(2-oxo-2-(pyrrolidin-1-yl)ethyl)isoquinolin-1(2H)-one] | 24 |
| O=C(Cn1ccc2cccc(-c3ccc(Cl)c(Cl)c3)c2c1=O)N1CCCC1 [Example 308] | 78 |

| Structure (SMILES) | Response Recovered (%) |
| --- | --- |
| O=C(Cn1ccc2cccc(-c3ccc(F)c(Cl)c3)c2c1=O)N1CC(F)(F)C1 [Example 309, 8-(3-chloro-4-fluorophenyl)-2-(2-(3,3-difluoroazetidin-1-yl)-2-oxoethyl)isoquinolin-1(2H)-one] | 41 |
| O=C(Cn1ccc2ccc(-c3ccc(Cl)c(C(F)(F)F)c3)cc2c1=O)N1CCCC1 [Example 310, 7-(4-chloro-3-(trifluoromethyl)phenyl)-2-(2-oxo-2-(pyrrolidin-1-yl)ethyl)isoquinolin-1(2H)-one] | 3 |
| O=C(Cn1ccc2ccc(-c3ccc(Cl)c(C(F)(F)F)c3)cc2c1=O)N1CCC(F)C1 (centres unmarked) [Example 311, 7-(4-chloro-3-(trifluoromethyl)phenyl)-2-(2-(3-fluoropyrrolidin-1-yl)-2-oxoethyl)isoquinolin-1(2H)-one] | 6 |
| O=C(Cn1ccc2ccc(-c3ccc(Cl)c(C(F)(F)F)c3)cc2c1=O)N1CC(F)(F)C1 [Example 312, 7-(4-chloro-3-(trifluoromethyl)phenyl)-2-(2-(3,3-difluoroazetidin-1-yl)-2-oxoethyl)isoquinolin-1(2H)-one] | 3 |
| O=C(Cn1ccc2ccc(-c3ccc(F)c(C(F)(F)F)c3)cc2c1=O)N1CCC(F)C1 (centres unmarked) [Example 314, 7-(4-fluoro-3-(trifluoromethyl)phenyl)-2-(2-(3-fluoropyrrolidin-1-yl)-2-oxoethyl)isoquinolin-1(2H)-one] | 8 |
| O=C(Cn1ccc2ccc(-c3ccc(Cl)c(Cl)c3)cc2c1=O)N1CCC(F)C1 (centres unmarked) [Example 315, 7-(3,4-dichlorophenyl)-2-(2-(3-fluoropyrrolidin-1-yl)-2-oxoethyl)isoquinolin-1(2H)-one] | 2 |
| O=C(Cn1ccc2ccc(-c3ccc(Cl)c(Cl)c3)cc2c1=O)N1CCCC1 [Example 316, 7-(3,4-dichlorophenyl)-2-(2-oxo-2-(pyrrolidin-1-yl)ethyl)isoquinolin-1(2H)-one] | 2 |
| O=C(Cn1cnc2[nH]nc(-c3ccc(Cl)c(C(F)(F)F)c3)c2c1=O)N1CCCC1 [Example 317, 3-(4-chloro-3-(trifluoromethyl)phenyl)-5-(2-oxo-2-(pyrrolidin-1-yl)ethyl)-1H-pyrazolo[3,4-d]pyrimidin-4(5H)-one] | 8 |
| O=C(Cn1cnc2[nH]nc(-c3ccc(Cl)c(C(F)(F)F)c3)c2c1=O)N1CCC(F)C1 (centres unmarked) [Example 318, 3-(4-chloro-3-(trifluoromethyl)phenyl)-5-(2-(3-fluoropyrrolidin-1-yl)-2-oxoethyl)-1H-pyrazolo[3,4-d]pyrimidin-4(5H)-one] | 26 |
| O=C(Cn1cnc2[nH]nc(-c3ccc(Cl)c(F)c3)c2c1=O)N1CCCC1 [Example 319, 3-(4-chloro-3-fluorophenyl)-5-(2-oxo-2-(pyrrolidin-1-yl)ethyl)-1H-pyrazolo[3,4-d]pyrimidin-4(5H)-one] | 4 |
| O=C(Cn1cnc2[nH]nc(-c3ccc(Cl)c(C(F)(F)F)c3)c2c1=O)N1CC(F)(F)C1 [Example 320, 3-(4-Chloro-3-trifluoromethyl-phenyl)-5-[2-(3,3-difluoro-azetidin-1-yl)-2-oxo-ethyl]-1,5-dihydro-pyrazolo[3,4-d]pyrimidin-4-one] | 9 |
| O=C(Cn1ccn2ncc(-c3ccc(F)c(C(F)(F)F)c3)c2c1=O)N1CCC(F)C1 (centres unmarked) [Example 321, 3-(4-fluoro-3-(trifluoromethyl)phenyl)-5-(2-(3-fluoropyrrolidin-1-yl)-2-oxoethyl)pyrazolo[1,5-a]pyrazin-4(5H)-one] | 46 |
| O=C(Cn1ccn2ncc(-c3ccc(F)c(C(F)(F)F)c3)c2c1=O)N1CC(F)C1 [Example 322, 3-(4-fluoro-3-(trifluoromethyl)phenyl)-5-(2-(3-fluoroazetidin-1-yl)-2-oxoethyl)pyrazolo[1,5-a]pyrazin-4(5H)-one] | 33 |
| O=C(Cn1ccn2ncc(-c3ccc(F)c(C(F)(F)F)c3)c2c1=O)N1CCCC1 [Example 323, 3-(4-fluoro-3-(trifluoromethyl)phenyl)-5-(2-oxo-2-(pyrrolidin-1-yl)ethyl)pyrazolo[1,5-a]pyrazin-4(5H)-one] | 40 |
| O=C(Cn1ccn2ncc(-c3ccc(F)c(C(F)(F)F)c3)c2c1=O)N1CC(F)(F)C1 [Example 324, 5-(2-(3,3-difluoroazetidin-1-yl)-2-oxoethyl)-3-(4-fluoro-3-(trifluoromethyl)phenyl)pyrazolo[1,5-a]pyrazin-4(5H)-one] | 51 |
| O=C(Cn1ccn2ncc(-c3ccc(Cl)c(Cl)c3)c2c1=O)N1CC(F)(F)C1 [Example 325, 3-(3,4-dichlorophenyl)-5-(2-(3,3-difluoroazetidin-1-yl)-2-oxoethyl)pyrazolo[1,5-a]pyrazin-4(5H)-one] | 50 |
| O=C(Cn1ccn2ncc(-c3ccc(Cl)c(Cl)c3)c2c1=O)N1CCCC1 [Example 326, 3-(3,4-dichlorophenyl)-5-(2-oxo-2-(pyrrolidin-1-yl)ethyl)pyrazolo[1,5-a]pyrazin-4(5H)-one] | 29 |
